Laboratory results published in patent US20250099427A1, “Drug and Method of Treating or Preventing Renal Disease Using Drug” (Showa University, priority 2018, published 2025).

Tested on: Chronic Renal Failure Animal Model
Test: Test using chronic renal failure animal model (nephrectomy + acetic acid application), renal function parameters
Assay type: in vivo, mouse
Conditions: mean±standard error; for Urinary output / Urinary protein: 24 h urine 12 weeks after acetic acid; for BUN / sCr: evaluated 12 weeks after acetic acid; for Ccr: creatinine clearance, 12 weeks after acetic acid
Experimental: A male ddY strain mouse (body weight: 30 g to 40 g) was used. Under anesthesia with isoflurane, the right flank of the mouse was incised, the renal arteries and veins were ligated, and then the right kidney was isolated. After suturing, acrinol was applied to the suture site as a disinfection treatment, and enrofloxacin was subcutaneously administered at 5 mg/kg as a preventive measure against infection, and acetaminophen was subcutaneously administered at 75 mg/kg as an analgesic treatment. After a recovery period of 3 to 4 weeks, the left abdomen of the mouse was incised, 100% acetic acid was applied to both sides of the kidney 10 times. This was defined as one course, and two courses were conducted at 5 minute intervals. After suturing, postoperative treatment was conducted in the same manner as in the removal of one of the kidneys. Considering the effect of surgery, a sham group to which acetic acid was not applied was provided.
4 weeks after the application of acetic acid, SMTP-7 was administered at a dose of 10 mg/kg or 30 mg/kg. The administration was carried out three times a week for 8 consecutive weeks by intraperitoneal administration. In addition, physiological saline was similarly administered to the sham group (without acetic acid application) and the Control group (with acetic acid application).
12 weeks after the application of acetic acid, urine was collected for 24 hours using a metabolic cage, and the urinary output was measured. During collecting urine, water was freely given. After urine collection, blood was collected from the descending aorta, the collected blood was centrifuged at 3000 rpm for 15 minutes, serum was separated, and BUN (urea nitrogen) and sCr (serum creatinine value) were measured. Further, protein and creatinine in the urine were also measured to calculate creatinine clearance (Ccr). BUN was measured using Urea B-test Wako (manufactured by Wako Pure Chemical Industries, Ltd.) and a QuantiChrom Urea Assay Kit (manufactured by Funakoshi Co., Ltd.), sCr was measured using Lab Assay Creatinine (manufactured by Wako Pure Chemical Industries, Ltd.), and urinary protein was measured using a BCA Protein assay kit (Thermo Fisher Scientific).
Renal function was evaluated by measuring BUN, sCr, urinary output, and urinary protein. In addition, urinary creatinine was measured to calculate creatinine clearance (Ccr).
In Table 9, the experimental results are expressed in mean±standard error. With reference to statistically significant difference, an unpaired test between two groups (Student's t-test) was conducted for comparison between two groups, and one-way analysis of variance was conducted and then a Dunnett test was conducted for comparison among multiple groups. In all cases, a significance level of 5% or less (P<0.05) was regarded as significant difference.
The experiment and evaluation were carried out in the same manner as in the SMTP-7 (30 mg/kg) administration group, except that edaravone (30 mg/kg) was administered instead of SMTP-7 in the SMTP-7 (30 mg/kg) administration group.

[1] = 10 mg/kg intraperitoneal three times a week for 8 weeks from 4 weeks after acetic acid
[2] = 30 mg/kg intraperitoneal three times a week for 8 weeks from 4 weeks after acetic acid

CC(C)=CCC/C(C)=C/CC[C@@]1(C)Oc2c(c(O)cc3c2CN(CCC[C@@H](C(=O)O)N2Cc4c(cc(O)c5c4O[C@](C)(CC/C=C(\C)CCC=C(C)C)[C@@H](O)C5)C2=O)C3=O)C[C@@H]1O [SMTP-7]
Urinary output [1]: 0.0986 ± 0.022 mL/min/kg
Urinary protein [1]: 968 ± 137 mg/kg/day
BUN [1]: 80.5 ± 13.3 mg/dL
sCr [1]: 0.71 ± 0.07 mg/dL
Urinary output [2]: 0.0537 ± 0.0128 mL/min/kg
Urinary protein [2]: 527 ± 96.2 mg/kg/day
BUN [2]: 55.1 ± 1.57 mg/dL
sCr [2]: 0.60 ± 0.05 mg/dL
Ccr [1]: 1.95 ± 0.23 mL/min/kg
Ccr (30 mg/kg intraperitoneal three times a week for 8 weeks from 4 weeks after acetic acid, 30 mg/kg): 2.66 ± 0.37 mL/min/kg
